Measurements taken from PMC8894159, “Paltusotine, a novel oral once-daily nonpeptide SST2 receptor agonist, suppresses GH and IGF-1 in healthy volunteers” (Pituitary, 2022).

Experiments:
Type in all cases: in vivo, human
serum IGF-1 = assay: Serum IGF-1 suppression in healthy volunteers
Procedure: For assessment of serum IGF-1, in the single-dose cohorts, serum IGF-1 was collected on Day - 1 and Day 1 (pre-dose to 18 h post-dose), and Day 2 and 7 (at approximately the same time GHRH was administered on Day 1). In the M1 cohort, IGF-1 samples were obtained pre-dose, 6 and 12 h post-dose on Days - 1, 1 and 7; pre-dose and 12 h post-dose on Days 2–6; and at approximately the same time as dosing on Days 8, 10, and 14. For M2 and subsequent cohorts, IGF-1 samples were obtained pre-dose, 6 and 12 h post-dose on Days - 1, 1 and 10; pre-dose and 12 h post-dose on Days 2–9; and at approximately the same time as dosing on Days 11, 14, and 21.
Serum was isolated, stored, and analyzed for IGF-1 and GH according to the instructions from the manufacturer (IGF-1 and human GH diagnostic assay, Siemens Immulite® 1000 systems).
The study endpoints were effects of paltusotine on GHRH-stimulated GH and IGF-1 (pharmacodynamics), pharmacokinetics (including formulation and food effects), safety, and tolerability. For the analysis of effects paltusotine on GHRH-stimulated GH and IGF-1, the pharmacodynamic population included all randomized participants in the 1.25 mg, 2.5 mg, 5 mg, 10 mg, and 20 mg (S1, S2, S3, S4A, and S5) single-dose cohorts who received any amount of study drug and had at least one post-baseline pharmacodynamic assessment. The percent change in serum GH area under the curve (AUC) from 0 to 2 h (AUC0-2) from baseline was compared using ANOVA between each dosing cohort and all participants who received placebo. The single-dose pharmacodynamic population included 39 participants from the S1, S2, S3, S4, and S5 cohorts (paltusotine n = 29; placebo n = 10). […] For multiple-dose cohorts, only participants who received all doses were included. A change in IGF-1 levels 12 h post last dose from baseline (average of 3–4 measurements) were compared by ANOVA between each dosing cohort and all participants who received placebo. The multiple-dose pharmacodynamic population included 31 participants from the M1, M2, M3, and M4 cohorts (paltusotine n = 21; placebo n = 10).

[1] = Safety and tolerability, multiple-dose cohorts
Procedure: Safety assessments included monitoring of clinical laboratory tests, cardiovascular safety monitoring (continuous Holter monitoring, ECG, telemetry), and physical examinations conducted at scheduled times throughout the study in the research units as well as post-discharge (up to 9 days after the single-dose, or up to 11 days after the last dose for multiple-dose cohorts). Adverse events and concomitant medications were recorded. Laboratory samples for clinical chemistry, hematology, coagulation tests, and urinalysis were collected under fasted conditions. Participants who discontinued prematurely attended an early termination visit. In the multiple-dose cohorts, baseline serum TSH, ACTH, and prolactin samples were collected on Day -2, and an oral glucose tolerance test (OGTT) was conducted on Day -7 or earlier. These assessments were repeated on Day 8 (M1) or Day 11 (M2 and subsequent cohorts). A safety review committee oversaw the study and made decisions to escalate, expand or decrease the dose for the cohorts based on a review of demographics, pharmacokinetics, pharmacodynamics, and safety data in a blinded fashion. For the safety analysis, adverse events were coded using the Medical Dictionary for Regulatory Activities (MedDRA® Version 20.0). Adverse events were grouped by preferred terms. Treatment-emergent adverse events (TEAEs) were summarized with descriptive statistics.

[2] = Relative bioavailability of capsule versus solution and food effect (10 mg); details: for Tmax: human, plasma, oral
Procedure: Screening occurred within 28 days prior to the first administered dose (Day 1) in both single-dose and multiple-dose cohorts. Participants were confined to a clinical research unit from Day -2 until the day after the last dose. Dosing of paltusotine or placebo commenced on Day 1 after baseline studies. Participants fasted overnight for ≥ 10 h prior to each dose administration and remained fasting until 4 h post-dose (after collection of the last GH sample after growth hormone-releasing hormone [GHRH] challenge). For the food effect cohort, the study drug was administered 30 min after a high-fat and high-calorie breakfast. Crinetics Pharmaceuticals, Inc (San Diego, CA) provided the active ingredient, paltusotine (3-[4-(4-Aminopiperidin-1-yl)-3-(3,5-difluorophenyl)quinolin-6-yl]-2-hydroxybenzonitrile hydrochloride; CRN00808), for administration as either an oral solution (prepared on site at the Phase 1 unit) or as capsules (placebo, 5 mg, and 20 mg).
In the single-dose phase, participants were randomized 6:2 to paltusotine (1.25, 2.5, 5, 10, 20, 40, and 60 mg) or placebo in 7 cohorts (S1 to S7). Cohorts comparing oral bioavailability of solution versus capsules and the effect of a standardized high-fat, high-calorie breakfast on oral bioavailability of the capsule formulation employed the 10 mg dose level. In the multiple-dose phase, participants were randomized 6:3 to once-daily oral paltusotine capsules or placebo at doses of 5 mg for 7 days (M1, Day Last = Day 7), and 10, 20, and 30 mg daily for 10 days (M2, M3, M4, Day Last = Day 10). The initial starting dose of 1.25 mg in the single-dose phase was selected for this study based on nonclinical pharmacologic activity, pharmacokinetics, and safety studies. Subsequent doses were either specified in the protocol or were selected by the safety review committee responsible for the safety oversight of the study.
For assessing pharmacokinetics of paltusotine, the single-dose pharmacokinetic population included all randomized participants who received any amount of study drug with sufficient plasma concentration data. For the multiple-dose cohorts, only participants who received all doses were included. The relative bioavailability of the capsule formulation was determined by comparing its pharmacokinetic parameters with those of the solution formulation at the 10 mg dose. Food effect was determined at the same dose by comparing pharmacokinetic parameters in the fasting state to those when paltusotine was administered with a high-fat, high-calorie meal. For both formulation and food effect, ANOVA with treatment as a fixed effect and subject as a random effect was performed. Data for peak concentration (Cmax), AUC0-last, and AUC0-inf were natural log-transformed.

[3] = multiple-dosing, safety population N = 24
[4] = multiple-dosing, safety population N = 24, listed as Paltusotine
[5] = one subject, cohort M3 20 mg, discontinued after Day 5

SMILES: Cl.N#Cc1cccc(-c2ccc3ncc(-c4cc(F)cc(F)c4)c(N4CCC(N)CC4)c3c2)c1O [paltusotine, 3-[4-(4-Aminopiperidin-1-yl)-3-(3,5-difluorophenyl)quinolin-6-yl]-2-hydroxybenzonitrile hydrochloride]
- IGF-1 suppression (serum IGF-1; 5 mg once daily, Day 7, relative to baseline): 19%
- additional time IGF-1 remained suppressed after the final dose (serum IGF-1; 10 mg cohort, final dose on Day 10): 4 days
- IGF-1 suppression (serum IGF-1; 10 mg once daily, Day 10, relative to baseline): 37%
- IGF-1 suppression (serum IGF-1; 20 mg once daily, Day 10, relative to baseline): 37%
- IGF-1 suppression (serum IGF-1; 30 mg once daily, Day 10, relative to baseline): 30%
- maximal degree of IGF-1 suppression (serum IGF-1; multiple-dose cohorts): up to 37%
- time to near-maximum IGF-1 suppression (serum IGF-1; once-daily dosing (10 mg cohort illustrated)): approximately 7 days
- serum IGF-1 change after a single dose (serum IGF-1; single 1.25 to 20 mg dose, compared to Day -1 or placebo): little to no change
- increase in glucose AUC0-3 upon 75 g oral glucose challenge compared to baseline ([1]; 30 mg multiple dose, 95% CI 1.8-4.6, placebo 1.5): 3.2 mmol·h/L
- heart rate, ECG morphology, PR duration, QRS interval, QTcF interval ([1]; all cohorts): no clinically meaningful changes
- fasting plasma glucose ([1]; multiple-dose cohorts): not significantly changed
- share of TEAEs occurring at a dose level of 10 mg or higher ([1]; multiple-dose cohorts): 78%
- Abdominal pain (TEAE) [1, 3]: 4 n (%)
- Diarrhea (TEAE) [1, 3]: 4 n (%)
- Headache (TEAE) [1, 3]: 3 n (%)
- Hyperglycemia (TEAE) [1, 3]: 2 (8.3%) n (%)
- Lipase/pancreatic enzymes increased (TEAE) [1, 3]: 2 (8.3%) n (%)
- Participants with at least 1 TEAE [1, 3]: 17 (70.8%) n (%)
- Upper respiratory tract infection (TEAE) [1, 3]: 2 (8.3%) n (%)
- Ventricular tachycardia (non-sustained) (TEAE) [1, 3]: 2 (8.3%) n (%)
- Abdominal pain (TEAE) [1, 4]: 4 (16.7%) n (%)
- Diarrhea (TEAE) [1, 4]: 4 (16.7%) n (%)
- Headache (TEAE) [1, 4]: 3 (12.5%) n (%)
- amylase peak [1, 5]: 2 times the upper limit of normal
- lipase peak [1, 5]: 3.9 times the upper limit of normal
- lipase elevation ([1]; one subject, cohort M4 30 mg, 24 h after the tenth dose): 1.7 times the upper limit of normal
- TSH, ACTH, or prolactin levels ([1]; repeated administration): no consistent trends of clinical relevance
- tolerability ([1]; repeated daily capsules, 7 days (5 mg) and 10 days (10, 20, 30 mg)): well tolerated
- AUC0-inf geometric mean ratio, high-fat high-calorie meal relative to fasted ([2]; 10 mg capsules): 17%
- Cmax geometric mean ratio, high-fat high-calorie meal relative to fasted ([2]; 10 mg capsules): 14%
- AUC0-inf geometric mean ratio, capsule relative to oral solution ([2]; 10 mg, fasted): 69%
- Cmax geometric mean ratio, capsule relative to oral solution ([2]; 10 mg, fasted): 83%
- decrease in Cmax and AUC0-24 with food ([2]; high-fat, high-calorie meal before 10 mg capsule): more than 7 fold
- Tmax ([2]; 10 mg, 10 mg capsules with high-fat, high-calorie meal): 3 h
- Tmax ([2]; 10 mg, 10 mg capsules, fasted): 2.1 h
